Experimental findings from patent US20110237659A1, “CHROMENONE DERIVATIVES AS TRPV3 ANTAGONISTS” (GLENMARK PHARMACEUTICALS S.A., priority 2008, published 2011) are described below.

Some results are limits rather than exact numbers.

The target in the experiment is T1, Human TRPV3 (Homo sapiens, UniProt Q8NET8).
T1 construct: expressed in transfected cells; host or cells: CHO cells
T1 sequence (Q8NET8 1-790): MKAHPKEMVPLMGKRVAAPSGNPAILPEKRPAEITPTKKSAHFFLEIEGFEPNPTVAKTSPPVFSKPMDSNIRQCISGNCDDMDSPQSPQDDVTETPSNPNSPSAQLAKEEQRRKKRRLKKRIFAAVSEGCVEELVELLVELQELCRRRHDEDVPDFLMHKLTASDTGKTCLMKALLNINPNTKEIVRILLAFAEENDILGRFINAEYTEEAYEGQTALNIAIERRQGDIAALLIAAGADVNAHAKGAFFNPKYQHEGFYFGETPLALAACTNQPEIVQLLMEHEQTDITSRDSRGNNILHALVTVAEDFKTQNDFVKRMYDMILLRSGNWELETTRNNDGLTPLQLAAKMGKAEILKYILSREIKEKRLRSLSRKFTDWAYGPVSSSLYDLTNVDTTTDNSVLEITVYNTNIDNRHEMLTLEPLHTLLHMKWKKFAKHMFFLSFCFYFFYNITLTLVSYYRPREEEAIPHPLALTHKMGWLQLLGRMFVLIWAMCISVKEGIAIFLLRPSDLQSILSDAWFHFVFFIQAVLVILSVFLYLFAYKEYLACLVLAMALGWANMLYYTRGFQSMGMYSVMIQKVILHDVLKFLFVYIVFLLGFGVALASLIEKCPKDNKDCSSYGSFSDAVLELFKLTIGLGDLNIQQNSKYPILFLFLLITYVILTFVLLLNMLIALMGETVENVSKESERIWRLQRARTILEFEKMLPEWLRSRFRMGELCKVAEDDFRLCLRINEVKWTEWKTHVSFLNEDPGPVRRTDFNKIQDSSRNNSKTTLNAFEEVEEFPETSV
Nature of the experiment: 45Calcium uptake assay: inhibition of 2-APB induced cellular uptake of radioactive calcium in human TRPV3 expressing CHO cells. It counts as cell-based. To be noted: 2-APB 500 μM; for inhibition at 1 µM: 1.0 μM test compound, read-out: Percentage inhibition at 1.0 μM; for inhibition at 10 µM: 10.0 μM test compound, read-out: Percentage inhibition at 10.0 μM. From the text:
The illustrative examples of the present invention are screened for TRPV3 activity according to a modified procedure described in (a) Tóth, A. et al. Life Sciences 2003, 73, 487-498. (b) McNamara C, R. et al. Proc. Natl. Acad. Sci. U.S.A., 2007, 104, 13525-13530. The screening of the compounds can be carried out by other methods and procedures known to persons skilled in the art.
Screening for TRPV3 Antagonist Using the ^45Calcium Uptake Assay
The inhibition of TRPV3 receptor activation was followed as inhibition of 2-aminoethxydiphenylborate (2-APB) induced cellular uptake of radioactive calcium. Test compounds were dissolved in dimethyl sulfoxide (DMSO) to prepare 20 mM stock solution and then diluted using plain medium with DMEM/F-12 containing 1.8 mM CaCl2 to get desired concentration. Final concentration of DMSO in the reaction was 0.5% (v/v). Human TRPV3 expressing CHO cells were grown in DMEM/F-12 medium with 10% FBS, 1% penicillin-streptomycin solution, 400 μg/mL of G-418. Cells were seeded 24 h prior to the assay in 96 well plates so as to get ˜50,000 cells per well on the day of experiment. Cells were treated with test compounds for 10 minutes followed by addition of 2-APB at a final concentration of 500 μM and 5 μCi/mL ^45Ca^+2 for 4 minutes. Cells were washed and lysed using buffer containing 1% Triton X-100, 0.1% deoxycholate and 0.1% SDS. Radioactivity in the lysate was measured in Packardt Top count after addition of liquid scintillant. Concentration response curves were plotted as a % of maximal response obtained in the absence of test antagonist. IC50 value was calculated from concentration response curve by nonlinear regression analysis using GraphPad PRISM software.
Percentage inhibition at concentrations of 1.0 μM and 10.0 μM are given in the table along with IC50 (nM) values for selected examples.

The term inhibition denotes the change of the read-out against control, counted positive when it falls. For orientation: IC50 means the midpoint of a concentration-inhibition curve.

Turning to `COc1cccc(/C=C/c2oc3cc(F)ccc3c(=O)c2-c2ccc(C#N)cc2)c1OCCC(F)(F)F` [Example 14, 4-(7-Fluoro-2-{(E)-2-[3-methoxy-2-(3,3,3-trifluoropropoxy)phenyl]-1-ethenyl}-4-oxo-4H-3-chromenyl)benzonitrile], the inhibition at 1 µM was determined as 96%, the inhibition at 10 µM came out at 98.7% and the IC50 fell in the range of 150 to 1000 nM.
`COc1cccc(/C=C/c2oc3ccccc3c(=O)c2-c2ccc(C#N)cc2)c1OC1CCCC1` [Example 5, 4-{2-[(E)-2-(2-Cyclopentyloxy-3-methoxyphenyl)-1-ethenyl]-4-oxo-4H-3-chromenyl}benzonitrile]: the inhibition at 1 µM came to 71.8%, the inhibition at 10 µM turned out to be 90.3% and the IC50 was in the range of 150 to 1000 nM.
In the case of `COc1cccc(/C=C/c2oc3cc(F)ccc3c(=O)c2-c2ccc(C#N)cc2)c1OCC(C)C` [Example 13, 4-{7-Fluoro-2-[(E)-2-(2-isobutoxy-3-methoxyphenyl)-1-ethenyl]-4-oxo-4H-3-chromenyl}benzonitrile], the inhibition at 1 µM was 92.9%, the inhibition at 10 µM worked out at 96.7% and the IC50 was in the range of 50 to 150 nM.
The corresponding values for `COc1cccc(/C=C/c2oc3cc(F)c(F)cc3c(=O)c2-c2ccc(C#N)cc2)c1OC1CCCC1` [Example 23, 4-{2-[(E)-2-[2-Cyclopentyloxy-3-methoxyphenyl)-1-ethenyl]-6,7-difluoro-4-oxo-4H-3-chromenyl}benzonitrile] are 75.8%, 86.7% and < 50 nM.
As to `COc1cccc(/C=C/c2oc3c(F)cc(F)cc3c(=O)c2-c2ccc(C#N)cc2)c1OCC1CC1` [Example 22, 4-{2-[(E)-2-(2-Cyclopropylmethoxy-3-methoxyphenyl)-1-ethenyl]-6,8-difluoro-4-oxo-4H-3-chromenyl}benzonitrile], the inhibition at 1 µM came to 40% and the inhibition at 10 µM is 73%.
Regarding `COc1cccc(/C=C/c2oc3ccc(F)cc3c(=O)c2-c2ccc(C#N)cc2)c1OCC1CCC1` [Example 17, 4-{2-[(E)-2-(2-Cyclobutylmethoxy-3-methoxyphenyl)-1-ethenyl]-6-fluoro-4-oxo-4H-3-chromenyl}benzonitrile], the inhibition at 1 µM was determined as 78.2%, the inhibition at 10 µM was found to be 89.8% and the IC50 lay in the range of 150 to 1000 nM.
For `COc1cccc(/C=C/c2oc3ccc(F)cc3c(=O)c2-c2ccc(C#N)cc2)c1OCC(C)C` [Example 19, 4-{6-Fluoro-2-[(E)-2-(2-isobutoxy-3-methoxyphenyl)-1-ethenyl]-4-oxo-4H-3-chromenyl}benzonitrile], in that order: 70.2%, 87.8% and < 50 nM.
For `COc1cccc(/C=C/c2oc3cc(F)ccc3c(=O)c2-c2ccc(C#N)cc2)c1OCC(C)(C)C` [Example 12, 4-{7-Fluoro-2-[(E)-2-(3-methoxy-2-neopentyloxyphenyl)-1-ethenyl]-4-oxo-4H-3-chromenyl}benzonitrile], in that order: 82.2%, 91.2% and < 50 nM.
Turning to `COc1cccc(/C=C/c2oc3cc(F)ccc3c(=O)c2-c2ccc(C#N)cc2)c1OCC1CC1` [Example 10, 4-{2-[(E)-2-(2-Cyclopropylmethoxy-3-methoxyphenyl)-1-ethenyl]-7-fluoro-4-oxo-4H-3-chromenyl}benzonitrile], the inhibition at 1 µM came to 87.3%, the inhibition at 10 µM is 95.6% and the half-maximal inhibitory concentration (IC50) was 150 to 1000 nM.
With `COc1cccc(/C=C/c2oc3ccccc3c(=O)c2-c2ccc(C#N)cc2)c1OCC(C)C` [Example 8, 4-{2-[(E)-2-[2-Isobutoxy-3-methoxyphenyl)-1-ethenyl]-4-oxo-4H-3-chromenyl}benzonitrile], the inhibition at 1 µM worked out at 89.3%, the inhibition at 10 µM stood at 96.4% and the IC50 lay within 50 to 150 nM.
For `COc1cccc(/C=C/c2oc3ccc(F)cc3c(=O)c2-c2ccc(C#N)cc2)c1OCCC(C)C` [Example 18, 4-{6-Fluoro-2-[(E)-2-(2-isopentyloxy-3-methoxyphenyl)-1-ethenyl]-4-oxo-4H-3-chromenyl}benzonitrile], the inhibition at 1 µM came out at 55.2% and the inhibition at 10 µM came out at 71.7%.
With `COc1cccc(/C=C/c2oc3cc(F)ccc3c(=O)c2-c2ccc(C#N)cc2)c1OC1CCCC1` [Example 11, 4-{2-[(E)-2-(2-Cyclopentyloxy-3-methoxyphenyl)-1-ethenyl]-7-fluoro-4-oxo-4H-3-chromenyl}benzonitrile], the inhibition at 1 µM is 84.6%, the inhibition at 10 µM stood at 92.6% and the IC50 fell in the range of 50 to 150 nM.
For `COc1cccc(/C=C/c2oc3ccc(F)cc3c(=O)c2-c2ccc(C#N)cc2)c1OCC(C)(C)C` [Example 20], in that order: 74.3%, 78.5% and < 50 nM.
The corresponding values for `COc1cccc(/C=C/c2oc3ccccc3c(=O)c2-c2ccc(C#N)cc2)c1OCC1CC1` [Example 3, 4-{2-[(E)-2-(2-Cyclopropylmethoxy-3-methoxyphenyl)-1-ethenyl]-4-oxo-4H-3-chromenyl}benzonitrile] are 90.4%, 94.5% and 150 to 1000 nM.
Take `COc1cccc(/C=C/c2oc3ccc(F)cc3c(=O)c2-c2ccc(C#N)cc2)c1OC1CCCC1` [Example 16, 4-{2-[(E)-2-(2-Cyclopentyloxy-3-methoxyphenyl)-1-ethenyl]-6-fluoro-4-oxo-4H-3-chromenyl}benzonitrile]: the inhibition at 1 µM amounted to 59.4% and the inhibition at 10 µM turned out to be 74.4%.
With `COc1cccc(/C=C/c2oc3ccccc3c(=O)c2-c2ccc(C#N)cc2)c1OCC(C)(C)C` [Example 7, 4-{2-[(E)-2-[2-(2,2-Dimethylpropoxy)-3-methoxyphenyl]-1-ethenyl]-4-oxo-4H-3-chromenyl}benzonitrile], the inhibition at 1 µM amounted to 89.8%, the inhibition at 10 µM worked out at 93.2% and the IC50 lay within 50 to 150 nM.
Take `COc1cccc(/C=C/c2oc3ccccc3c(=O)c2-c2ccc(OC(F)(F)F)cc2)c1OCC1CC1` [Example 1, 2-[(E)-2-(2-Cyclopropylmethoxy-3-methoxyphenyl)-1-ethenyl]-3-(4-trifluoromethoxy-phenyl)-4H-4-chromenone]: the inhibition at 1 µM amounted to 36.7% and the inhibition at 10 µM came to 62.2%.
Take `COc1cccc(/C=C/c2oc3ccccc3c(=O)c2-c2ccc(C(F)(F)F)cc2)c1OCC1CC1` [Example 2, 2-[(E)-2-(2-Cyclopropylmethoxy-3-methoxyphenyl)-1-ethenyl]-3-(4-trifluoromethyl-phenyl)-4H-4-chromenone]: the inhibition at 1 µM was 63.1%, the inhibition at 10 µM stood at 75.4% and the 50% inhibitory concentration (IC50) is 150 to 1000 nM.
For `COc1cccc(/C=C/c2oc3ccc(F)cc3c(=O)c2-c2ccc(C#N)cc2)c1OCC1CC1` [Example 15, 4-{2-[(E)-2-(2-Cyclopropylmethoxy-3-methoxyphenyl)-1-ethenyl]-6-fluoro-4-oxo-4H-3-chromenyl}benzonitrile], in that order: 79.3%, 94.1% and 150 to 1000 nM.
For `COc1cccc(/C=C/c2oc3ccc(Cl)cc3c(=O)c2-c2ccc(C#N)cc2)c1OCC1CC1` [Example 21, 4-{6-Chloro-2-[(E)-2-(2-cyclopropylmethoxy-3-methoxyphenyl)-1-ethenyl]-4-oxo-4H-3-chromenyl}benzonitrile], in that order: 76.4%, 87.7% and 150 to 1000 nM.
